From ChEMBL document CHEMBL1201862, “PubChem BioAssay data set” (2004)
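Results reflect a 48-hour exposure of cells in 96-well plates to compound at five concentrations. GI50: concentration for 50% inhibition of growth.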 Active and inactive are the calls of the source. No stated cut-off is given here; in the data, active = GI50 up to about 1.1 µM and inactive = higher.

How the values were obtained:
Assay in all cases: DTP human tumour cell line panel, 48 h
DLD-1 = tested on: DLD-1
DMS-273 = tested on: DMS-273
HOP-18 = tested on: HOP-18
KM-20L2 = tested on: KM-20L2
LXFL 529 = tested on: LXFL 529
XF498 = tested on: XF498
RXF 631 = tested on: RXF 631

Measured: GI50

CNC(=O)OCc1nccc2c(C)c3[nH]c4ccc(OC)cc4c3cc12
inactive: DLD-1 2.99 µM | DMS-273 7.23 µM | HOP-18 2.47 µM | KM-20L2 3.11 µM | LXFL 529 5.74 µM | XF498 14.1 µM

CCc1cccc(=O)c([O-])c1.CCc1cccc(=O)c([O-])c1.[Bi+3].[Cl-]
inactive: DLD-1 2.91 µM | DMS-273 7.53 µM | HOP-18 16.2 µM | KM-20L2 10.5 µM | LXFL 529 1.71 µM | RXF 631 4.13 µM | XF498 2.38 µM

NC1=NC(=O)/C(=C/c2ccccc2[N+](=O)[O-])C(N)=N1
inactive: DLD-1 > 100 µM | DMS-273 > 100 µM | HOP-18 > 100 µM | KM-20L2 > 100 µM | LXFL 529 > 100 µM | RXF 631 > 100 µM | XF498 > 100 µM

C=CCN(CC=C)CC(C(C)=O)C(c1ccccc1)c1c(O)c2ccccc2oc1=O (stereo not drawn)
inactive: DLD-1 > 100 µM | DMS-273 > 100 µM | KM-20L2 82.8 µM | LXFL 529 > 100 µM | XF498 > 100 µM

CCOc1ccccc1NC(=O)CC1SC(Nc2ccc([N+](=O)[O-])cc2)=NC1=O (stereo not drawn)
inactive: DLD-1 22.9 µM | HOP-18 17.6 µM | KM-20L2 19.4 µM | LXFL 529 17.7 µM | XF498 15.8 µM

Cc1ccc(C(=O)/C=C2\Nc3c(c(=O)oc4ccccc34)N=C2NC23CC4CC(CC(C4)C2)C3)cc1
inactive: DLD-1 89.9 µM | DMS-273 > 100 µM | KM-20L2 > 100 µM | LXFL 529 > 100 µM | XF498 > 100 µM

Cc1ccccc1NC(=O)/C(=N/NC(=O)CC#N)C1C(=O)N(c2ccccc2)N=C1N (stereo not drawn)
inactive: DLD-1 79.6 µM | DMS-273 > 100 µM | HOP-18 > 100 µM | KM-20L2 > 100 µM | LXFL 529 > 100 µM | RXF 631 > 100 µM | XF498 > 100 µM

CN(C)CCNC(=O)c1ccc(Cl)c2c(Nc3ccc(S(=O)(=O)N=C(N)N)cc3)c3ccccc3nc12
inactive: DLD-1 5.62 µM | DMS-273 1.79 µM | KM-20L2 5.53 µM | LXFL 529 3.94 µM | XF498 4.51 µM

CC1(C)C(=O)N(CCCCCCN2C(=O)C(C)(C)c3ccccc32)c2ccccc21
inactive: DMS-273 40.9 µM | HOP-18 81.1 µM | KM-20L2 37.2 µM | LXFL 529 39.1 µM | XF498 16.5 µM

CCOC(=O)C(=O)Nc1ccccc1C(C)C
inactive: DLD-1 > 100 µM | DMS-273 > 100 µM | HOP-18 > 100 µM | KM-20L2 > 100 µM | LXFL 529 > 100 µM | RXF 631 > 100 µM | XF498 > 100 µM

C1=C2/CC[C@H](Sc3ccccc3)[C@H]2C2(CCCCC/1)OCCO2
inactive: DLD-1 61.4 µM | DMS-273 39.4 µM | HOP-18 72.8 µM | KM-20L2 21.1 µM | LXFL 529 46.7 µM

COc1ccc(CN2C(=O)C(Cc3cc(OC)c(OC)c(C)c3OC)NC(=O)/C2=C/c2cc(OC)c(OC)c(C)c2OC)cc1 (stereo not drawn)
inactive: DLD-1 33 µM | DMS-273 > 10 µM | HOP-18 26.1 µM | KM-20L2 25 µM | LXFL 529 31.8 µM | RXF 631 43 µM

Brc1cc2c(cc1C1SCCS1)OCO2
inactive: DLD-1 > 100 µM | DMS-273 > 100 µM | HOP-18 > 100 µM | KM-20L2 > 100 µM | LXFL 529 > 100 µM | RXF 631 > 100 µM

Cn1nc(-c2ccccc2)c(C(=O)/C=C/c2ccc(F)cc2)c(N2CCOCC2)c1=O
inactive: DLD-1 23.1 µM | DMS-273 19.1 µM | HOP-18 17.3 µM | KM-20L2 15.1 µM | LXFL 529 16 µM | RXF 631 27.7 µM | XF498 19.8 µM

COC(=O)C1=CC2C=CC(C1C(=O)OC)C1C(C(=O)OC)=C(C(=O)OC)C(C(=O)OC)=C(C(=O)OC)C21OC (stereo not drawn)
inactive: DLD-1 > 100 µM | DMS-273 > 100 µM | HOP-18 > 100 µM | KM-20L2 > 100 µM | LXFL 529 > 100 µM | RXF 631 > 100 µM

COc1ccc2cccc(C(=O)c3ccc(C)c4c3CCC4)c2c1
inactive: DLD-1 21.5 µM | DMS-273 29.1 µM | HOP-18 33.3 µM | KM-20L2 35.9 µM | LXFL 529 29.6 µM | RXF 631 23 µM

CCN(CC)CCCNc1nccc2c(C)c3[nH]c4ccncc4c(=O)c3cc12
inactive: DLD-1 1.79 µM | DMS-273 2.19 µM | HOP-18 2.52 µM | KM-20L2 4.11 µM | LXFL 529 1.48 µM | RXF 631 1.92 µM | XF498 2.46 µM

O=c1c2c([nH]c3cc4c(cc13)OCO4)-c1ccccc1C2
inactive: DLD-1 23.5 µM | DMS-273 19.2 µM | HOP-18 24.2 µM | KM-20L2 19 µM | LXFL 529 22.7 µM | XF498 24.2 µM

O=C(N[C@H]1CC2(C=C(I)C(=O)C(I)=C2)OC1=O)OCc1ccccc1
inactive: DLD-1 15.7 µM | KM-20L2 18.6 µM | LXFL 529 16.6 µM | RXF 631 17.1 µM | XF498 13.8 µM

O=S1(=O)N2CN3CN(C2)CN1C3
inactive: DLD-1 33.4 µM | DMS-273 27 µM | HOP-18 > 50.1 µM | KM-20L2 > 91.8 µM | LXFL 529 18.2 µM | XF498 > 100 µM

O=C1c2cccc3cccc(c23)C(=O)N1CCN(CCO)CCO
inactive: DLD-1 30.6 µM | DMS-273 22.8 µM | HOP-18 75 µM | KM-20L2 21.1 µM | LXFL 529 32.3 µM | RXF 631 35.8 µM | XF498 28.5 µM

CCOC(=O)C1=C(C)NC(=S)NC1c1ccccc1 (stereo not drawn)
inactive: DLD-1 > 57.9 µM | DMS-273 > 100 µM | HOP-18 > 35.6 µM | KM-20L2 > 41.4 µM | LXFL 529 76.4 µM | RXF 631 > 100 µM | XF498 > 39.4 µM
